Conditions: Liquid, Vibrating tube method

CCCCCCCCC(=O)OC [methyl nonanoate]
mass density [kg/m3]
Conditions	293.15 K	303.15 K	313.15 K	323.15 K	333.15 K	343.15 K	353.15 K	363.15 K
100 kPa	874.53	865.62	857.46	848.37	839.92	831.17	822.78	814.24
1000 kPa	874.57	866.39	857.68	849.17	840.72	832.28	823.57	815.28
3000 kPa	876.13	867.88	859.33	850.82	842.6	834.1	825.7	817.47
5000 kPa	877.24	869.35	860.86	852.43	844.26	835.98	827.54	819.49
10000 kPa	880.79	872.9	864.63	856.42	848.44	840.27	832.17	824.1
15000 kPa	884.05	876.32	868.21	860.21	852.27	844.44	836.71	829.08
20000 kPa	887.23	879.53	871.68	863.98	856.18	848.65	840.79	833.26
25000 kPa	890.33	882.74	875.06	867.27	859.9	852.29	844.86	837.27
30000 kPa	893.33	885.85	878.23	870.68	863.32	856.04	848.7	841.4
35000 kPa	896.14	888.79	881.36	873.86	866.68	859.58	852.44	845.31
40000 kPa	898.87	891.61	884.18	877.04	870.12	862.91	855.87	849.11
50000 kPa	904.41	897.21	890.09	883.08	876.13	869.47	862.53	855.98
60000 kPa	909.15	902.44	895.33	888.79	881.95	875.25	868.9	862.59

CCCC(=O)OC [methyl butanoate]
mass density [kg/m3]
Conditions	293.15 K	303.15 K	313.15 K	323.15 K	333.15 K	343.15 K	353.15 K	363.15 K
100 kPa	898.42	886.68	875.83	864.35	853.11	841.05	829.58	817.31
1000 kPa	898.68	887.75	876.3	865.42	854.08	842.4	830.8	818.87
3000 kPa	900.65	889.67	878.42	867.62	856.55	844.95	833.71	821.94
5000 kPa	902.15	891.54	880.45	869.76	858.82	847.57	836.31	824.91
10000 kPa	906.55	895.99	885.34	875.02	864.28	853.35	842.65	831.48
15000 kPa	910.63	900.35	889.92	879.93	869.44	858.9	848.71	838.19
20000 kPa	914.51	904.45	894.25	884.63	874.46	864.31	854.19	843.84
25000 kPa	918.33	908.4	898.53	888.92	879.2	869.1	859.51	849.26
30000 kPa	921.95	912.18	902.47	893.19	883.56	873.89	864.51	854.68
35000 kPa	925.38	915.86	906.46	897.21	887.79	878.44	869.35	859.76
40000 kPa	928.67	919.34	910.02	901.15	892.1	882.65	873.76	864.61
50000 kPa	935.38	926.18	917.24	908.62	899.8	890.89	882.24	873.56
60000 kPa	941.12	932.54	923.73	915.65	906.96	898.16	890.18	881.85

Reference: the NIST ThermoML archive (doi:10.1016/j.fluid.2018.04.024)
